In the experiment the target is T1, rPAPD5 (Homo sapiens, UniProt Q8NDF8).
T1 construct: made in house
T1 sequence (Q8NDF8 68-698 isoform Q8NDF8-5 limits assumed): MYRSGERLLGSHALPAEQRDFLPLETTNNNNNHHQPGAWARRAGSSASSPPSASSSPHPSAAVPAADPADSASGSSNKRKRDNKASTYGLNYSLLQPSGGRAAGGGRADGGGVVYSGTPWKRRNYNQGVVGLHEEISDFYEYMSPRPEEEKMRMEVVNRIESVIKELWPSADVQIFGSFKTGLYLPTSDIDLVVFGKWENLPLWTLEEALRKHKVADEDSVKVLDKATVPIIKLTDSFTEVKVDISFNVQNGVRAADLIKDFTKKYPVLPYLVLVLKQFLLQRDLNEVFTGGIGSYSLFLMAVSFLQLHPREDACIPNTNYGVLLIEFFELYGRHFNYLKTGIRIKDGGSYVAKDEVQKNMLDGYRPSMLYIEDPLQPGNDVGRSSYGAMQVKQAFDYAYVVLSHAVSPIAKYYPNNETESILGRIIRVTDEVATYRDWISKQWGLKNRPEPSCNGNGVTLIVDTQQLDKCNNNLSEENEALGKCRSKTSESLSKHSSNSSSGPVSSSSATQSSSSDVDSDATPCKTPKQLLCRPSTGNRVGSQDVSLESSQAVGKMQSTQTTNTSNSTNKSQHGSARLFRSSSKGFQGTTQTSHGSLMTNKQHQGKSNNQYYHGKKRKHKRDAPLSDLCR
Briefly: differential scanning fluorimetry (DSF) binding and stabilization of rPAPD5. Particulars: 100 μM test compound; shift vs DMSO control; read-out: ΔTm at 100 μM. The protocol: Binding and stabilization of rPAPD5 by test compounds was determined using differential scanning fluorimetry (DSF). DSF assays were performed to determine protein melting temperature using an indicator dye SYPRO orange (Thermo Fisher Scientific, S6651) diluted 1:5000 in […] of buffer containing […], […] (Jena Biosciences), 25 mM Tris-HCl, 5 mM MgCl2, 50 mM KCl. […] DMSO was used as a negative control. Each curve was an average of three measurements and Thermal Shift software (Thermo Fisher Scientific, 4466038) was used for analysis. […] The change in melting temperature (ΔTm) is in reference to the DMSO control. Referring to Table 2, “+” refers to ΔTm values below 1° C., “++” refers to ΔTm values from 1 to 5° C., and “+++” refers to ΔTm values above 5° C.
Background: Differential scanning fluorimetry follows unfolding on heating by fluorescence.
For the compound `O=C(O)c1ccccc1Nc1c(Br)cnc2ccc(Cl)cc12` [Compound 232A, 2-[(3-bromo-6-chloro-4-quinolyl)amino]benzoic acid], the ΔTm at 100 µM was above 5 °C.

With `O=C(O)c1ccccc1Nc1c(S(=O)(=O)N2CCOCC2)cnc2ccc(C(F)(F)F)cc12` [Compound 234A, 2-[[3-morpholinosulfonyl-6-(trifluoromethyl)-4-quinolyl]amino]benzoic acid], the thermal shift (ΔTm) at 100 µM is above 5 °C.

For `CC(=O)NS(=O)(=O)c1ccc2ncc(S(=O)(=O)N3CCOCC3)c(Nc3ccccc3C(=O)O)c2c1` [Compound 235A, 2-[[6-(acetylsulfamoyl)-3-morpholinosulfonyl-4-quinolyl]amino]benzoic acid], the ΔTm at 100 µM was 1 to 5 °C.

With `O=C(O)c1ccccc1Nc1c(S(=O)(=O)N2CCOCC2)cnc2ccc(OC(F)F)cc12` [Compound 236A, 2-[[6-(difluoromethoxy)-3-morpholinosulfonyl-4-quinolyl]amino]benzoic acid], the ΔTm at 100 µM is above 5 °C.

In the case of `O=C(O)c1ccccc1Nc1c(S(=O)(=O)N2CCOCC2)cnc2ccc(NC3CCOCC3)cc12` [Compound 237A, 2-[[3-morpholinosulfonyl-6-(tetrahydropyran-4-ylamino)-4-quinolyl]amino]benzoic acid], the thermal shift (ΔTm) at 100 µM is below 1 °C.

In the case of `O=C(O)c1ccccc1Nc1c(S(=O)(=O)N2CCOCC2)cnc2ccc(NC3CCC(F)(F)CC3)cc12` [Compound 238A, 2-[[6-[(4,4-difluorocyclohexyl)amino]-3-morpholinosulfonyl-4-quinolyl]amino]benzoic acid], the thermal shift (ΔTm) at 100 µM lay in the range of 1 to 5 °C.

As to `O=C(O)c1ccccc1Nc1c(S(=O)(=O)N2CCOCC2)cnc2ccc(NC3CCNCC3)cc12` [Compound 239A, 2-[[3-morpholinosulfonyl-6-(4-piperidylamino)-4-quinolyl]amino]benzoic acid], the shift in melting temperature (ΔTm) at 100 µM is 1 to 5 °C.

With `O=C(O)c1ccccc1Nc1c(S(=O)(=O)N2CCOCC2)cnc2ccc(Nc3ccncc3)cc12` [Compound 240A, 2-[[3-morpholinosulfonyl-6-(4-pyridylamino)-4-quinolyl]amino]benzoic acid], the ΔTm at 100 µM lay within 1 to 5 °C.

On to `O=C(O)c1ccccc1Nc1c(S(=O)(=O)N2CCOCC2)cnc2ccc(Nc3ncco3)cc12` [Compound 241A, 2-[[3-morpholinosulfonyl-6-(oxazol-2-ylamino)-4-quinolyl]amino]benzoic acid], for which the shift in melting temperature (ΔTm) at 100 µM is above 5 °C.

For `O=C(O)c1ccccc1Nc1c(S(=O)(=O)N2CCOCC2)cnc2ccc(Nc3ccc4[nH]cnc4c3)cc12` [Compound 247A, 2-[[6-(1H-benzimidazol-5-ylamino)-3-morpholinosulfonyl-4-quinolyl]amino]benzoic acid], the ΔTm at 100 µM lay within 1 to 5 °C.

For `O=C(O)c1ccccc1Nc1c(S(=O)(=O)N2CCOCC2)cnc2ccc(N3CCOCC3)cc12` [Compound 248A, 2-[(6-morpholino-3-morpholinosulfonyl-4-quinolyl)amino]benzoic acid], the thermal shift (ΔTm) at 100 µM was 1 to 5 °C.

Turning to `NS(=O)(=O)c1ccc2ncc(S(=O)(=O)N3CCOCC3)c(Nc3ccccc3C(=O)O)c2c1` [Compound 249A, 2-[(3-morpholinosulfonyl-6-sulfamoyl-4-quinolyl)amino]benzoic acid], the ΔTm at 100 µM is above 5 °C.

On to `O=C(O)c1ccccc1Nc1c(S(=O)(=O)N2CCOCC2)cnc2ccccc12` [Compound 250A, 2-[(3-morpholinosulfonyl-4-quinolyl)amino]benzoic acid], for which the ΔTm at 100 µM was above 5 °C.

`O=C(O)c1c(Nc2c(S(=O)(=O)N3CCOCC3)cnc3ccc(Cl)cc23)cccc1-c1ncco1` [Compound 261A, 2-[(6-chloro-3-morpholinosulfonyl-4-quinolyl)amino]-6-oxazol-2-yl-benzoic acid]: the shift in melting temperature (ΔTm) at 100 µM is below 1 °C.

In the case of `O=C(O)c1cc(B(O)O)ccc1Nc1c(S(=O)(=O)N2CCOCC2)cnc2ccc(Cl)cc12` [Compound 263A, 5-borono-2-[(6-chloro-3-morpholinosulfonyl-4-quinolyl)amino]benzoic acid], the shift in melting temperature (ΔTm) at 100 µM is above 5 °C.

For `O=C(O)c1cc(O)ccc1Nc1c(S(=O)(=O)N2CCOCC2)cnc2ccc(Cl)cc12` [Compound 265A, 2-[(6-chloro-3-morpholinosulfonyl-4-quinolyl)amino]-5-hydroxy-benzoic acid], the ΔTm at 100 µM is above 5 °C.

As for `O=C(O)c1cc(Br)ccc1Nc1c(S(=O)(=O)N2CCOCC2)cnc2ccc(Cl)cc12` [Compound 268A, 5-bromo-2-[(6-chloro-3-morpholinosulfonyl-4-quinolyl)amino]benzoic acid], the thermal shift (ΔTm) at 100 µM was below 1 °C.

On to `O=C(O)c1cc(C(F)(F)F)ccc1Nc1c(S(=O)(=O)N2CCOCC2)cnc2ccc(Cl)cc12` [Compound 271A, 2-[(6-chloro-3-morpholinosulfonyl-4-quinolyl)amino]-5-(trifluoromethyl)benzoic acid], for which the ΔTm at 100 µM was 1 to 5 °C.

On to `Cc1ccc(C(=O)O)c(Nc2c(S(=O)(=O)N3CCOCC3)cnc3ccc(Cl)cc23)c1` [Compound 272A, 2-[(6-chloro-3-morpholinosulfonyl-4-quinolyl)amino]-4-methyl-benzoic acid], for which the shift in melting temperature (ΔTm) at 100 µM is above 5 °C.

With `O=C(O)c1ccc(O)cc1Nc1c(S(=O)(=O)N2CCOCC2)cnc2ccc(Cl)cc12` [Compound 273A, 2-[(6-chloro-3-morpholinosulfonyl-4-quinolyl)amino]-4-hydroxy-benzoic acid], the ΔTm at 100 µM fell in the range of 1 to 5 °C.

`O=C(O)c1ccc(Cl)cc1Nc1c(S(=O)(=O)N2CCOCC2)cnc2ccc(Cl)cc12` [Compound 274A, 4-chloro-2-[(6-chloro-3-morpholinosulfonyl-4-quinolyl)amino]benzoic acid]: the ΔTm at 100 µM is above 5 °C.

As to `O=C(O)c1ccc(F)cc1Nc1c(S(=O)(=O)N2CCOCC2)cnc2ccc(Cl)cc12` [Compound 275A, 2-[(6-chloro-3-morpholinosulfonyl-4-quinolyl)amino]-4-fluoro-benzoic acid], the ΔTm at 100 µM is above 5 °C.

Take `O=C(O)c1ccc(Br)cc1Nc1c(S(=O)(=O)N2CCOCC2)cnc2ccc(Cl)cc12` [Compound 276A, 4-bromo-2-[(6-chloro-3-morpholinosulfonyl-4-quinolyl)amino]benzoic acid]: the shift in melting temperature (ΔTm) at 100 µM is above 5 °C.

On to `COc1ccc(C(=O)O)c(Nc2c(S(=O)(=O)N3CCOCC3)cnc3ccc(Cl)cc23)c1` [Compound 277A, 2-[(6-chloro-3-morpholinosulfonyl-4-quinolyl)amino]-4-methoxy-benzoic acid], for which the ΔTm at 100 µM is above 5 °C.

For `O=C(O)c1ccc(C(F)(F)F)cc1Nc1c(S(=O)(=O)N2CCOCC2)cnc2ccc(Cl)cc12` [Compound 278A, 2-[(6-chloro-3-morpholinosulfonyl-4-quinolyl)amino]-4-(trifluoromethyl)benzoic acid], the shift in melting temperature (ΔTm) at 100 µM was 1 to 5 °C.

With `O=C(O)c1cccc(O)c1Nc1c(S(=O)(=O)N2CCOCC2)cnc2ccc(Cl)cc12` [Compound 279A, 2-[(6-chloro-3-morpholinosulfonyl-4-quinolyl)amino]-3-hydroxy-benzoic acid], the ΔTm at 100 µM lay in the range of 1 to 5 °C.

Regarding `O=C(O)c1cccc(Cl)c1Nc1c(S(=O)(=O)N2CCOCC2)cnc2ccc(Cl)cc12` [Compound 280A, 3-chloro-2-[(6-chloro-3-morpholinosulfonyl-4-quinolyl)amino]benzoic acid], the ΔTm at 100 µM is above 5 °C.

Take `O=C(O)c1cccc(F)c1Nc1c(S(=O)(=O)N2CCOCC2)cnc2ccc(Cl)cc12` [Compound 281A, 2-[(6-chloro-3-morpholinosulfonyl-4-quinolyl)amino]-3-fluoro-benzoic acid]: the ΔTm at 100 µM was above 5 °C.

As a reminder, the ΔTm is the shift of the melting midpoint relative to a reference.
